{"source": "patent US10709704B2", "about": "“Treating neural disease with tyrosine kinase inhibitors” (GEORGETOWN UNIVERSITY, priority 2012, dated 2020)", "key": {"[1]": {"test_system": "human Tau, Aβ1-42, α-synuclein", "assay": "M17 cells transfected with Tau cDNA: Tau, Aβ1-42, α-synuclein", "assay_type": "cell-based", "procedure": "Cell culture experiments are referenced below and explained in Burns et al. (Human Molecular Genetics. 2009) and Rebeck et al. (J. Biol. Chem. 2010, 285:7440-7446). Additional details are provided in the brief description of the figures.\nIn other experiments, M17 cells transfected with Tau cDNA were treated with Nilobinib and Tubacin (an HDAC6 inhibitor)."}, "[2]": {"test_system": "molecular markers of autophagy", "assay": "Western blot of autophagy markers, lentiviral Aβ1-42 parkin−/− mice", "assay_type": "in vivo, mouse"}, "[3]": {"test_system": "SN Tyrosine hydroxylase (TH) neurons", "assay": "TH neuron stereology and electron microscopy of SN, lentiviral α-Synuclein mice", "assay_type": "in vivo, mouse", "procedure": "Animals were deeply anesthetized with a mixture of Xylazine and Ketamine (1:8), washed with 1× saline for 1 min and then perfused with 4% paraformaldehyde (PFA) for 15-20 min. Brains were quickly dissected out and immediately stored in 4% PFA for 24 h at […], and then transferred to 30% sucrose at […] for 48 h. Tyrosine Hydroxylase (TH) was probed (1:100) with rabbit polyclonal (AB152) antibody (Millipore) and human α-Synuclein was probed (1:100) with mouse monoclonal antibodies (Thermo Scientific) and DAB counterstained.\nThese were applied by a blinded investigator using unbiased stereology analysis (Stereologer, Systems Planning and Analysis, Chester, Md.) to determine the total positive cell counts in 20 cortical fields on at least 10 brain sections (˜400 positive cells per animal) from each animal.\nBrain tissues are fixed in (1:4, v:v) 4% PFA-picric acid solution and […] overnight, then washed 3× in 0.1 M cacodylate buffer and osmicated in 1% osmium tetroxide/1.5% potassium ferrocyanide for 3 h, followed by another 3× wash in distilled water. […] Blocks are sectioned on a Leica ultracut microtome at 95 nm, picked up onto […] formvar-coated copper grids and analyzed using a Philips Technai Spirit transmission EM. […]"}, "[4]": {"test_system": "Aβ1-42 plaques and intracellular Aβ1-42", "assay": "Plaque and intracellular Aβ1-42 staining, lentiviral Aβ1-42 wild type mice", "assay_type": "in vivo, mouse", "procedure": "(§1) Immunohistochemistry was performed on 20 micron-thick 4% paraformaldehyde (PFA) fixed cortical brain sections. Aβ1-42 was probed (1:200) with rabbit polyclonal specific anti-Aβ1-42 antibody (Zymed) that recognizes a.a.1-42, and (1:200) mouse monoclonal antibody (4G8) that recognizes amino acid 17-24 (Covance) and counterstained with DAPI. Parkin was immunoprobed (1:200) with mouse anti-parkin (PRK8) antibody that recognizes amino acid 399-465 (Signet Labs, Dedham, Mass.) and rabbit polyclonal (1:200) anti-parkin (AB5112) antibody that recognizes amino acid 305-622 (Millipore) and counterstained with DAPI. Mouse monoclonal (6E10) antibody (1:100) with DAB were used (Covance) and thioflavin-S was performed according to manufacturer's instructions (Sigma).\n(§2) Stereological methods were applied by a blinded investigator using unbiased stereology analysis (Stereologer, Systems Planning and Analysis, Chester, Md.) as described in (20,36)."}, "caspase-3 activation": {"test_system": "caspase-3 activation", "procedure": "Lentiviral constructs encoding LacZ, or Aβ1-42 were stereotaxically injected 1×106 multiplicity of infection (m.o.i) bilaterally into the CA1 hippocampus of 1 year old C57BL/6 or parkin−/−. A Total of […] lentiviral stocks were delivered at a rate of 0.2 μl/min and. All procedures were approved by the Georgetown University Animal Care and Use Committee (GUACUC).\nAβ and p-Tau enzyme-linked immunosorbent assay (ELISA) using specific p-Tau, Aβ1-40 and Aβ1-42 ELISA and caspase-3 activity were performed according to manufacturer's protocol."}, "Tg-APP mice": {"test_system": "Tg-APP mice", "assay": "Novel object recognition, Tg-APP mice", "assay_type": "in vivo, mouse", "settings": "Tg-APP+Nilotinib", "procedure": "Mice were placed individually in a 22×32×30 cm testing chamber for a 5 min habituation interval and returned to their home cages. Thirty minutes later mice were placed in the testing chamber for 10 min with two identical objects (acquisition session), then returned to their home cages and […] placed back in the testing chamber in the presence with one of the original objects and one novel object of the same size but of a different color and shape (recognition session). Sessions were video recorded. Time spent exploring the objects were scored by blind observer. The recognition index was calculated as (time exploring one of the objects/time exploring both objects)×100 for acquisition session, and (time exploring new object/time exploring both familiar and novel objects)×100 for the recognition session. Statistical calculations to estimate differences between sessions were performed with a pairwise t-test.\nThese experiments were repeated in 1 year old Tg-APP mice and age-matched control (C57BL/6)."}, "[5]": {"test_system": "human M17 neuroblastoma cells", "assay": "MTT cell viability, M17 cells transfected with Aβ1-42 or LacZ", "assay_type": "cell-based", "settings": "Nilotinib 24 hr", "procedure": "Human neuroblastoma M17 or rat B35 cells were grown in 24 well dishes (Falcon). Transient transfection was performed with 3 μg Aβ1-42 cDNA, or 3 μg LacZ cDNA for 24 hr. […] Cells were harvested 48 hr after transfection.\nParkin levels were measured via ELISA using parkin−/− brain extracts as a specificity control (FIG. 66A)."}, "[6]": {"test_system": "Aβ1-42 plaques and intracellular Aβ1-42", "assay": "Plaque and intracellular Aβ1-42 staining, lentiviral Aβ1-42 parkin−/− mice", "assay_type": "in vivo, mouse", "procedure": "as §1, §2"}}}
{"compound": "Cc1cn(-c2cc(NC(=O)c3ccc(C)c(Nc4nccc(-c5cccnc5)n4)c3)cc(C(F)(F)F)c2)cn1", "note": "[Nilotinib]", "values": [{"measurement": "human Aβ1-42", "setting": "[1]", "result": "decrease"}, {"measurement": "human Tau", "setting": "[1]", "result": "decrease"}, {"measurement": "α-synuclein", "setting": "[1]", "result": "decrease"}, {"measurement": "Atg12 and Atg5 levels (WB)", "setting": "[2]", "result": "not changed"}, {"measurement": "LC3-II (WB)", "setting": "[2]", "result": "did not clear"}, {"measurement": "TH+ neurons (by stereology)", "setting": "[3]; lentiviral α-Synuclein mice + Nilotinib", "result": "82 % of LacZ level"}, {"measurement": "autophagic vacuoles in SN neurons (transmission electron microscopy)", "setting": "[3]; lentiviral α-Synuclein mice, Nilotinib treatment", "result": "appearance of larger AVs"}, {"measurement": "plaque size", "setting": "[4]; Aβ1-42 wild type mice + Nilotinib (DMSO around 48 μm)", "result": 5, "unit": "μm"}, {"measurement": "plaque formation", "setting": "[4]; Aβ1-42 wild type mice, Nilotinib daily for 3 weeks", "result": "eliminates plaque formation"}, {"measurement": "Aβ1-42 positive cells (stereological counting)", "setting": "[4]; Aβ1-42 wild type mice, Nilotinib treated", "result": 5200, "unit": "cells"}, {"measurement": "intracellular Aβ1-42 accumulation (cortex)", "setting": "[4]; lentiviral Aβ1-42 injected mice, Nilotinib", "result": "eliminated Aβ1-42 accumulation"}, {"measurement": "increase in caspase-3 activation", "setting": "caspase-3 activation; lentiviral Aβ1-42 parkin−/− mice with Nilotinib (without 180%)", "result": 165, "unit": "%"}, {"measurement": "caspase-3 activation above control", "setting": "caspase-3 activation; lentiviral Aβ1-42 wild type mice, 10 mg/kg daily 3 weeks (DMSO 165%)", "result": 45, "unit": "% above control"}, {"measurement": "better performance at finding new objects than DMSO mice", "setting": "Tg-APP mice", "result": 31, "unit": "%"}, {"measurement": "cell viability (MTT) after Aβ1-42 induced cell death", "setting": "[5]; Aβ1-42 expressing cells", "result": "83 % of control level"}, {"measurement": "cell death (by MTT)", "setting": "[5]; LacZ cells", "result": "No cell death"}, {"measurement": "plaque size", "setting": "[6]; Aβ1-42 parkin−/− mice + Nilotinib (DMSO 85 μm)", "result": 79, "unit": "μm"}, {"measurement": "Aβ1-42 positive cells (stereological counting)", "setting": "[6]; Aβ1-42 parkin−/− mice + Nilotinib (DMSO N=14566)", "result": 13250}, {"measurement": "plaque load", "setting": "[6]; Aβ1-42 parkin−/− mice, Nilotinib", "result": "did not reduce plaque load"}]}
